Like-named read-outs stand apart in the source and are kept apart here.
Biological target: T1, F508delCFTR (Homo sapiens, UniProt P13569, DEL508-508)
T1 construct: expressed in transfected cells; host or cells: CFBE41o- human lung-derived epithelial cells (CFBE4lo-F508delCFTR-HRP), doxycycline-inducible
Test: Cell Surface Expression-Horse Radish Peroxidase (CSE-HRP) Assay;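 as to Maximum % activity (with co-corrector): co-corrector and positive control are both the same reference corrector at 2 µM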;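 as to Maximum % activity (without co-corrector): percent of the 2 µM on-plate positive control corrector response above DMSO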
Assay type: cell-based
Settings: for Maximum % activity (with co-corrector) / Emax: maximum at any tested concentration, normalized to on-plate positive control; for Emax: read-out: Maximum % activity (without co-corrector)
Experimental: Cell Surface Expression-Horse Radish Peroxidase (CSE-HRP) Assay;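 as to Maximum % activity (with co-corrector): co-corrector and positive control are both the same reference corrector at 2 µM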;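 as to Maximum % activity (without co-corrector): percent of the 2 µM on-plate positive control corrector response above DMSO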
The development was achieved by expressing the F508delCFTR mutation along with a horseradish peroxidase (HRP) in the fourth exofacial loop, and then measuring the HRP activity using luminescence readout from these cells, CFBE4lo-F508delCFTR-HRP, that were incubated overnight with the test corrector compounds, either without or with the co-corrector. […] The test compounds were then added either without or with a co-corrector at the required concentrations and further incubated for 18-24 hours at 33° C. The highest concentration tested was 20 μM with an 8-point concentration response curve using a 3-fold dilution in both the test compound without or with the co-corrector. Three replicate plates were run to determine one EC50. All plates contained negative controls (dimethyl sulfoxide, DMSO) and positive control (2 μM of 3-[(2R,4R)-4-({[1-(2,2-difluoro-1,3-benzodioxol-5-yl)cyclopropyl]carbonyl}amino)-7-methoxy-3,4-dihydro-2H-chromen-2-yl]benzoic acid) as well as on-plate concentration response of the positive control. […] The raw counts from the experiment were analyzed using Accelrys® Assay Explorer v3.3.
1−[3*SDPositive Control+3*SDNegative Control/Absolute(MeanPositive Control−MeanNegative Control)]
wherein “SD” is standard deviation.
The % activity measured at each of the 8 test concentrations of the test compound added either without or with a co-corrector (2 μM of 3-[(2R,4R)-4-({[1-(2,2-difluoro-1,3-benzodioxol-5-yl)cyclopropyl]carbonyl}amino)-7-methoxy-3,4-dihydro-2H-chromen-2-yl]benzoic acid) was normalized to the on-plate positive control using the following formulae:
% activity(Test compound without co-corrector)=[(test compound without co-corrector response−DMSO response)/(positive control response−DMSO response)]*100
% activity(Test compound with co-corrector)=[(test compound with co-corrector response−DMSO response)/(positive control response−DMSO response)]*100
The maximum % activity achieved for the test compound either without or with a co-corrector at any tested concentration is presented in Table 4 along with the respective EC50's calculated using the following general sigmoidal curve with variable Hill slope equation (described as Model 42 in the Accelrys® Assay Explorer v3.3 software):
General sigmoidal curve with concentration, response, top, bottom, EC50 and Hill slope. This model describes a sigmoidal curve with an adjustable baseline, a. The equation can be used to fit curves where response is either increasing or decreasing with respect to the independent variable, “x”.
“x” is a concentration of drug under test. “y” is the response. “a” is the maximum response, and “d” is the minimum response “c” is the inflection point (EC50) for the curve. That is, “y” is halfway between the lower and upper asymptotes when x=c. “b” is the slope-factor or Hill coefficient. The sign of b is positive when the response increases with increasing dose and is negative when the response decreases with increasing dose (inhibition).

[1] = CSE-HRP, test compound without co-corrector, read-out: EC50 (without co-corrector)
[2] = CSE-HRP, with co-corrector (2 μM of 3-[(2R,4R)-4-({[1-(2,2-difluoro-1,3-benzodioxol-5-yl)cyclopropyl]carbonyl}amino)-7-methoxy-3,4-dihydro-2H-chromen-2-yl]benzoic acid), read-out: EC50 (with co-corrector)
[3] = CSE-HRP, with co-corrector (2 μM)
[4] = test compound without co-corrector
[5] = test compound without co-corrector, read-out: EC50 (without co-corrector)
[6] = with co-corrector (2 μM of 3-[(2R,4R)-4-({[1-(2,2-difluoro-1,3-benzodioxol-5-yl)cyclopropyl]carbonyl}amino)-7-methoxy-3,4-dihydro-2H-chromen-2-yl]benzoic acid)
[7] = with co-corrector (2 μM of 3-[(2R,4R)-4-({[1-(2,2-difluoro-1,3-benzodioxol-5-yl)cyclopropyl]carbonyl}amino)-7-methoxy-3,4-dihydro-2H-chromen-2-yl]benzoic acid), read-out: EC50 (with co-corrector)

T1 sequence (P13569 with tags, fused parts or gaps DEL508-508): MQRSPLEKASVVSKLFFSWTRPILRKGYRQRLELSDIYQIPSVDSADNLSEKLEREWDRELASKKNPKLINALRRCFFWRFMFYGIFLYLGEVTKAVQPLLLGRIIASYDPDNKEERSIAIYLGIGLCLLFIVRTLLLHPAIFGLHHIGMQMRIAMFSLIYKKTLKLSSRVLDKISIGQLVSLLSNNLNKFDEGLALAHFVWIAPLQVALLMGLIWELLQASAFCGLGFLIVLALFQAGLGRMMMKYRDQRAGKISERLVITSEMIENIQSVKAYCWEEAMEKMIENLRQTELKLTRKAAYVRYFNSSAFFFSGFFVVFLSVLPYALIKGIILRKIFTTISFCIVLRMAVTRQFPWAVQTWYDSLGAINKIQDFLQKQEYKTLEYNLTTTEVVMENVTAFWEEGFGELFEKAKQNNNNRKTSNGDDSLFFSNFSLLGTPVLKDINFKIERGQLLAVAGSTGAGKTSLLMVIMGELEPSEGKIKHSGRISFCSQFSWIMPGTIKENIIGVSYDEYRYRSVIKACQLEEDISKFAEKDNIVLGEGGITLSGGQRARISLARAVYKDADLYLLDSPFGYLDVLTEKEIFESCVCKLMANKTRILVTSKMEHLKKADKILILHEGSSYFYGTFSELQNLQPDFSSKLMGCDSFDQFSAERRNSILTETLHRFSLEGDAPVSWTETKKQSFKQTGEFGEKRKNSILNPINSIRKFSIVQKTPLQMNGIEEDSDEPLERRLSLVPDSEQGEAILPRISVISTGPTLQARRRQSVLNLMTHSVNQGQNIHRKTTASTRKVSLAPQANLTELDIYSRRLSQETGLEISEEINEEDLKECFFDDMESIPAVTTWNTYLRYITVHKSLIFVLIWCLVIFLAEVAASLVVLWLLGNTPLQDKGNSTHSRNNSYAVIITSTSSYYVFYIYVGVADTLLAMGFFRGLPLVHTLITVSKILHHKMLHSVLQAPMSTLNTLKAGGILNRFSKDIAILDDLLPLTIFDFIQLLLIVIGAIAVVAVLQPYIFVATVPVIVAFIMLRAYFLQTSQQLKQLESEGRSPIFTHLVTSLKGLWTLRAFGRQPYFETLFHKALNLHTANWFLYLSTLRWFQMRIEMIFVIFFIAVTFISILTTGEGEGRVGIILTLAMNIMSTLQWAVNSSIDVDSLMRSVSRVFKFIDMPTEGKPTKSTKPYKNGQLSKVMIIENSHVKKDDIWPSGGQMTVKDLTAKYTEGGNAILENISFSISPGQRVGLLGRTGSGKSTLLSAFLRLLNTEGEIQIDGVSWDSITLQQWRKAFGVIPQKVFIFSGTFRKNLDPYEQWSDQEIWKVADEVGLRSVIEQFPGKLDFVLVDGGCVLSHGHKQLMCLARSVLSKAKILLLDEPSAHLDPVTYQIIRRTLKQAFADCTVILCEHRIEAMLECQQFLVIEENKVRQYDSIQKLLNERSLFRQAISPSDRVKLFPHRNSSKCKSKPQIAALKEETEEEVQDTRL

Compound	EC50 [1]	EC50 [2]	Maximum % activity (with co-corrector) [3]	Emax (CSE-HRP, without co-corrector)	Emax [4]	EC50 [5]	Maximum % activity (with co-corrector) [6]	EC50 [7]
Cc1ccc(C(F)(F)F)cc1CN[C@@H]1[C@@H](C(C)(C)C)[C@H](C(=O)O)N(C(=O)C2CCCCC2)[C@@H]1c1ccccc1 (racemic) [II-72]	< 1 µM	1 to 10 µM	++ (≥150 and <350)	< 100%	–	–	–	–
COc1ccc(C(C)C)cc1CN[C@@H]1[C@@H](C(C)(C)C)[C@H](C(=O)O)N(C(=O)C2CCCCC2)[C@@H]1c1ccccc1 (racemic) [II-73]	1 to 10 µM	1 to 10 µM	+++ (≥350)	> 200%	–	–	–	–
COc1cc(C#N)ccc1CN[C@@H]1[C@@H](C(C)(C)C)[C@H](C(=O)O)N(C(=O)C2CCCCC2)[C@@H]1c1ccccc1 (racemic) [II-74]	1 to 10 µM	1 to 10 µM	+++ (≥350)	< 100%	–	–	–	–
CC(C)(C)[C@@H]1[C@@H](NCc2cc(Cl)ccc2OC(F)(F)F)[C@@H](c2ccccc2)N(C(=O)C2CCCCC2)[C@H]1C(=O)O (racemic) [II-75]	< 1 µM	1 to 10 µM	++ (≥150 and <350)	< 100%	–	–	–	–
CC(C)(C)[C@@H]1[C@@H](NCc2ccccc2OC(F)(F)F)[C@@H](c2ccccc2)N(C(=O)C2CCCCC2)[C@H]1C(=O)O (racemic) [II-76]	1 to 10 µM	1 to 10 µM	+++ (≥350)	< 100%	–	–	–	–
COc1nc(C(F)(F)F)ccc1CN[C@@H]1[C@@H](C(C)(C)C)[C@H](C(=O)O)N(C(=O)C2CCCCC2)[C@@H]1c1ccccc1 (racemic) [II-77]	1 to 10 µM	1 to 10 µM	+++ (≥350)	100 to 200%	–	–	–	–
COc1ccc(Cl)cc1CN[C@@H]1[C@@H](C(C)(C)OC)[C@H](C(=O)O)N(C(=O)C2CCCCC2)[C@@H]1c1ccccc1 (racemic) [II-79]	1 to 10 µM	1 to 10 µM	+++ (≥350)	> 200%	–	–	–	–
COc1ccc(C(F)(F)F)cc1CN[C@@H]1[C@@H](C(C)(C)C)[C@H](C(=O)O)N(C(=O)C2COCCO2)[C@@H]1c1ccccc1 (mixture of isomers) [II-85]	1 to 10 µM	1 to 10 µM	++ (≥150 and <350)	< 100%	–	–	–	–
COc1ccc(Cl)cc1CN[C@@H]1[C@@H](C(C)(C)C)[C@H](C(=O)O)N(C(=O)C2COCCO2)[C@@H]1c1ccccc1 (mixture of isomers) [II-86]	1 to 10 µM	1 to 10 µM	++ (≥150 and <350)	< 100%	–	–	–	–
COc1cc(C(F)(F)F)ccc1CN[C@@H]1[C@@H](C(C)(C)OC)[C@H](C(=O)O)N(C(=O)C2CCCCC2)[C@@H]1c1ccccc1 (racemic) [II-88]	1 to 10 µM	1 to 10 µM	+++ (≥350)	100 to 200%	–	–	–	–
COc1ncc(C(F)(F)F)cc1N[C@@H]1[C@@H](C(C)(C)OC)[C@H](C(=O)O)N(C(=O)C2CCCCC2)[C@@H]1c1ccccc1 (racemic) [II-89]	1 to 10 µM	1 to 10 µM	++ (≥150 and <350)	< 100%	–	–	–	–
COc1ccc(C(C)(C)C)cc1CN[C@@H]1[C@@H](C(C)(C)C)[C@H](C(=O)O)N(C(=O)OC2CCC2)[C@@H]1c1ccccc1 (racemic) [II-90]	1 to 10 µM	1 to 10 µM	+++ (≥350)	> 200%	–	–	–	–
Cc1ccccc1CN[C@@H]1[C@@H](C(C)(C)C)[C@H](C(=O)O)N(C(=O)CC2CCCC2)[C@@H]1c1ccccc1 (racemic) [III-2]	–	–	–	–	< 100%	> 10 µM	++ (≥150 and <350)	1 to 10 µM
CC(C)(C)[C@@H]1[C@@H](NCc2ccc(Cl)cc2Cl)[C@@H](c2ccccc2)N(C(=O)CC2CCCC2)[C@H]1C(=O)O (racemic) [III-3]	–	–	–	–	< 100%	> 10 µM	++ (≥150 and <350)	1 to 10 µM
CC(C)(C)[C@@H]1[C@@H](Nc2cc(C(F)(F)F)ccn2)[C@@H](c2ccccc2)N(C(=O)C2CCCCC2)[C@H]1C(=O)O (racemic) [III-4]	–	–	–	–	< 100%	1 to 10 µM	+++ (≥350)	1 to 10 µM
CC(C)(C)[C@@H]1[C@@H](Nc2ccc(C(F)(F)F)cn2)[C@@H](c2ccccc2)N(C(=O)C2CCCCC2)[C@H]1C(=O)O (racemic) [III-5]	–	–	–	–	< 100%	1 to 10 µM	++ (≥150 and <350)	1 to 10 µM
CC(C)(C)[C@@H]1[C@@H](Nc2cc(Cl)ccn2)[C@@H](c2ccccc2)N(C(=O)C2CCCCC2)[C@H]1C(=O)O (racemic) [III-6]	–	–	–	–	< 100%	> 10 µM	++ (≥150 and <350)	1 to 10 µM
CC(C)(C)[C@@H]1[C@@H](NCc2ccccc2OC(F)F)[C@@H](c2ccccc2)N(C(=O)C2CCCCC2)[C@H]1C(=O)O (racemic) [III-7]	–	–	–	–	< 100%	1 to 10 µM	+++ (≥350)	1 to 10 µM
COc1cccc(N[C@@H]2[C@@H](C(C)(C)C)[C@H](C(=O)O)N(C(=O)C3CCCCC3)[C@@H]2c2ccccc2)n1 (racemic) [III-8]	–	–	–	–	< 100%	1 to 10 µM	+++ (≥350)	1 to 10 µM
CC(C)(C)[C@@H]1[C@@H](NCc2cccc(Cl)c2O)[C@@H](c2ccccc2)N(C(=O)C2CCCCC2)[C@H]1C(=O)O (racemic) [III-9]	–	–	–	–	< 100%	> 10 µM	++ (≥150 and <350)	1 to 10 µM
CC(C)(C)[C@@H]1[C@@H](NCc2cccc(OC3CCOCC3)n2)[C@@H](c2ccccc2)N(C(=O)C2CCCCC2)[C@H]1C(=O)O (racemic) [III-10]	–	–	–	–	< 100%	> 10 µM	++ (≥150 and <350)	1 to 10 µM
COc1ccc(OC)c(CN[C@@H]2[C@@H](C(C)(C)C)[C@H](C(=O)O)N(C(=O)C3CCCCC3)[C@@H]2c2ccccc2)c1 (racemic) [III-11]	–	–	–	–	< 100%	1 to 10 µM	++ (≥150 and <350)	1 to 10 µM
COc1ccccc1CN[C@@H]1[C@@H](C(C)(C)C)[C@H](C(=O)O)N(C(=O)C2CCCCC2)[C@@H]1c1ccccc1 (racemic) [III-12]	–	–	–	–	< 100%	1 to 10 µM	+++ (≥350)	1 to 10 µM
COc1cccc(CN[C@@H]2[C@@H](C(C)(C)C)[C@H](C(=O)O)N(C(=O)C3CCCCC3)[C@@H]2c2ccccc2)c1OC (racemic) [III-13]	–	–	–	–	< 100%	> 10 µM	+ (<150)	> 10 µM
COc1cccc(CN[C@@H]2[C@@H](C(C)(C)C)[C@H](C(=O)O)N(C(=O)C3CCCCC3)[C@@H]2c2ccccc2)c1 (racemic) [III-14]	–	–	–	–	< 100%	> 10 µM	++ (≥150 and <350)	1 to 10 µM
COc1ccc(CN[C@@H]2[C@@H](C(C)(C)C)[C@H](C(=O)O)N(C(=O)C3CCCCC3)[C@@H]2c2ccccc2)c(OC)c1Cl (racemic) [III-15]	–	–	–	–	< 100%	1 to 10 µM	++ (≥150 and <350)	< 1 µM
